Test results from patent US20250188057A1, “NON-AROMATIC CYCLIC-PYRIMIDINE ANALOGS AS GLUCOSYLCERAMIDE SYNTHASE INHIBITORS” (Merck Sharp & Dohme LLC, priority 2022, published 2025).

The compounds below were run against glucosylceramide synthase (GCS) (Homo sapiens (Human), UniProt Q16739) (assay: UDP-Glo glucosylceramide synthase biochemical assay). Conditions: endogenous GCS in Golgi preparations isolated from human A375 malignant melanoma skin cells; UDP detection by luminescence.
Source text: A UDP-Glo™ glucosylceramide synthase biochemical assay was utilized to evaluate the effect of test compounds on the activity of endogenous levels of GCS enzyme contained within Golgi preparations isolated from human A375 malignant melanoma skin cells. The UDP-Glo™ glucosylceramide synthase assay uses UDP-Glucose as a nucleotide-glycosyl donor and ceramide as substrate acceptor molecules. In the reaction, glucosylceramide synthase (GCS) transfers glucose from UDP-Glucose to ceramide. Glucosylceramide and UDP are released as products.
Using Promega's UDP-Glo™ Glycosyltransferase assay kit (Promega Corporation, Madison, WI, USA (Promega)), GCS activity was indirectly measured by detecting the amount of UDP produced. An aliquot of GCS enzyme (1.5 μg crude golgi preparation, total protein) and titrated test compound were aliquoted to each well and incubated for 30 minutes at room temperature. […] An equivalent volume of substrate mixture was then added to each well. Following a 20 h incubation at room temperature to allow for GCS turnover of substrate, an equal volume of UDP detection reagent (Promega) was added to each well and incubated for an additional 75 minutes at room temperature to simultaneously convert the accumulated UDP product into ATP and generate light in a luciferase reaction. The generated light was detected using a luminometer. […] luminescence values (RLUs) were normalized to mean “min” and “max” effects, as determined on each plate. “Min” was defined as the mean of the values of the wells treated with vehicle (DMSO) and which represent 0% inhibition; “max” was defined as the mean of the values of the wells treated with a reference inhibitor and which represent the 100% effect. Values for % Emax and EC50 were determined by best-fitting the normalized data to a curve in Activity Base along a four-parameter logistic nonlinear regression (4PL) model (based on the Levenberg-Marquardt algorithm and defined by the equation below): […]
where: n is 4PMin (bottom of the curve); m is 4PMax (top of the curve); i is IP (inflection point of curve); and p is slope. See Levenberg, K., “A Method for the Solution of Certain Problems in Least Squares”, Quart. Appl. Math. 2, (1944), pp 164-168 and Marquardt, D., “An Algorithm for Least Squares Estimation on Nonlinear Parameters”, SIAM J. Appl. Math 11, (1963) pp 431-441.

Sequence of glucosylceramide synthase (GCS) (Q16739 whole entry): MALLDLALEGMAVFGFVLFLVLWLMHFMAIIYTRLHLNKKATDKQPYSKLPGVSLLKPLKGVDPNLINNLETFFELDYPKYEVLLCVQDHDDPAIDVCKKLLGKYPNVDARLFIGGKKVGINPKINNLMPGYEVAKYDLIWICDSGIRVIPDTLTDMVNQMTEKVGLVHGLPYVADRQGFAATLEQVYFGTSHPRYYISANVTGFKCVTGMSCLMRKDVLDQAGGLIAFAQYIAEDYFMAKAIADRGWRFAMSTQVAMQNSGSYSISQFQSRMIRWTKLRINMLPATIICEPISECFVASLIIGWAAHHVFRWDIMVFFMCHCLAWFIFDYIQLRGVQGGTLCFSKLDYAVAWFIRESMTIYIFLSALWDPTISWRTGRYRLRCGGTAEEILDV

SMILES	IC50 [nM]
N#Cc1cnc(C2CC2)nc1OCC12CC(COCc3ccccc3)(CO1)C2 [Compound 103, 4-((4-((benzyloxy)methyl)-2-oxabicyclo[2.1.1]hexan-1-yl)methoxy)-2-cyclopropylpyrimidine-5-carbonitrile]	2080
N#Cc1cnc(C2CC2)nc1OCC1CCCN1Cc1ccccc1Cl (stereo not shown) [Compound 106, 4-((1-(2-chlorobenzyl)pyrrolidin-2-yl)methoxy)-2-cyclopropylpyrimidine-5-carbonitrile]	1330
Cc1nc2c(s1)CCCC2Nc1nc(C2CC2)nc(Cl)c1CO (single isomer, unassigned) [Compound 110, (4-chloro-2-cyclopropyl-6-((2-methyl-4,5,6,7-tetrahydrobenzo[d]thiazol-4-yl)amino)pyrimidin-5-yl)methanol]	266
COC[C@@H](c1ccc(C(F)(F)F)cc1)N1CCN(c2nc(C3CC3)ncc2C#N)C[C@@H]1C [Compound 81, 2-cyclopropyl-4-((S)-4-((R)-2-methoxy-1-(4-(trifluoromethyl)phenyl)ethyl)-3-methylpiperazin-1-yl)pyrimidine-5-carbonitrile]	584
N#Cc1cnc(C2CC2)nc1OC[C@H]1CCN(c2cccc3cnccc23)C1 [Compound 33, (S)-2-cyclopropyl-4-((1-(isoquinolin-5-yl)pyrrolidin-3-yl)methoxy)pyrimidine-5-carbonitrile]	1400
N#Cc1cnc(C2CC2)nc1N1CCC(N(C2CC2)S(=O)(=O)c2ccccc2)CC1 [Compound 83, N-(1-(5-cyano-2-cyclopropylpyrimidin-4-yl)piperidin-4-yl)-N-cyclopropylbenzenesulfonamide]	1590
OCc1c(Cl)nc(C2CC2)nc1NC1CCCc2sc(C3CCCCC3)nc21 (stereo not shown) [Compound 115, (4-chloro-6-((2-cyclohexyl-4,5,6,7-tetrahydrobenzo[d]thiazol-4-yl)amino)-2-cyclopropylpyrimidin-5-yl)methanol]	7.5
N#Cc1cnc(C2CC2)nc1OC1CCc2ccc(C(F)(F)F)cc21 (stereo not shown) [Compound 98, 2-cyclopropyl-4-((6-(trifluoromethyl)-2,3-dihydro-1H-inden-1-yl)oxy)pyrimidine-5-carbonitrile]	23
CC(F)(F)c1ccnc(N2CC[C@H](COc3nc(C4CC4)ncc3C#N)C2)c1 [Compound 32, (S)-2-cyclopropyl-4-((1-(4-(1,1-difluoroethyl)pyridin-2-yl)pyrrolidin-3-yl)methoxy)pyrimidine-5-carbonitrile]	3290
N#Cc1cnc(C2CC2)nc1OC[C@H]1C[C@@H]1c1ccc(F)cn1 [Compound 61, 2-cyclopropyl-4-(((1S,2S)-2-(5-fluoropyridin-2-yl)cyclopropyl)methoxy)pyrimidine-5-carbonitrile]	1030
COC(=O)C[C@@H]1COc2cc(OC3CN(c4nc(C5CC5)ncc4C#N)C3)ccc21 [Compound 80, methyl (S)-2-(6-((1-(5-cyano-2-cyclopropylpyrimidin-4-yl)azetidin-3-yl)oxy)-2,3-dihydrobenzofuran-3-yl)acetate]	303
OCc1cnc(C2CC2)nc1OC[C@H]1CN(c2ccc(C(F)(F)F)nc2)CCO1 [Compound 4, (R)-(2-cyclopropyl-4-((4-(6-(trifluoromethyl)pyridin-3-yl)morpholin-2-yl)methoxy)pyrimidin-5-yl)methanol]	1380
N#Cc1cnc(C2CC2)nc1OC[C@H]1CCN(c2ncccc2C(F)F)C1 [Compound 26, (S)-2-cyclopropyl-4-((1-(3-(difluoromethyl)pyridin-2-yl)pyrrolidin-3-yl)methoxy)pyrimidine-5-carbonitrile]	4660
Cc1nc(-c2ccc(N3CC[C@H](COc4nc(C5CC5)ncc4C#N)C3)cc2)co1 [Compound 40, (S)-2-cyclopropyl-4-((1-(4-(2-methyloxazol-4-yl)phenyl)pyrrolidin-3-yl)methoxy)pyrimidine-5-carbonitrile]	29
OCc1cnc(C2CC2)nc1OC1CCN(c2ccc(C(F)(F)F)nc2)CC1 [Compound 6, (2-cyclopropyl-4-((1-(6-(trifluoromethyl)pyridin-3-yl)piperidin-4-yl)oxy)pyrimidin-5-yl)methanol]	1440
N#Cc1cnc(C2CC2)nc1OCC12CC1CN(c1ncc(C(F)(F)F)cn1)C2 (stereo not shown) [Compound 51, 2-cyclopropyl-4-((3-(5-(trifluoromethyl)pyrimidin-2-yl)-3-azabicyclo[3.1.0]hexan-1-yl)methoxy)pyrimidine-5-carbonitrile]	90

SMILES	IC50 [nM]
Cc1nccc(-c2cccc(N3CC[C@H](COc4nc(C5CC5)ncc4C#N)C3)c2)n1 [Compound 15, (S)-2-cyclopropyl-4-((1-(3-(2-methylpyrimidin-4-yl)phenyl)pyrrolidin-3-yl)methoxy)pyrimidine-5-carbonitrile]	816
N#Cc1cnc(C2CC2)nc1OC[C@H]1CCN(c2ncc(C(F)(F)F)cn2)C1 [Compound 42, (S)-2-cyclopropyl-4-((1-(5-(trifluoromethyl)pyrimidin-2-yl)pyrrolidin-3-yl)methoxy)pyrimidine-5-carbonitrile]	61
COc1cc(N2CC[C@@H](COc3nc(C4CC4)ncc3C#N)C2)c(F)cn1 [Compound 38, (R)-2-cyclopropyl-4-((1-(5-fluoro-2-methoxypyridin-4-yl)pyrrolidin-3-yl)methoxy)pyrimidine-5-carbonitrile]	2940
N#Cc1cnc(C2CC2)nc1OC[C@@H]1C[C@H]1c1ccc(F)cn1 [Compound 62, 2-cyclopropyl-4-(((1R,2R)-2-(5-fluoropyridin-2-yl)cyclopropyl)methoxy)pyrimidine-5-carbonitrile]	983
Cc1nc(N2CC(c3nc4ccccc4n3C)C2)cc(N2CC3(CCCC3)CC2=O)n1 [Compound 120, 2-(2-methyl-6-(3-(1-methyl-1H-benzo[d]imidazol-2-yl)azetidin-1-yl)pyrimidin-4-yl)-2-azaspiro[4.4]nonan-3-one]	4130
OCc1cnc(C2CC2)nc1OC[C@@H]1CCN(c2ccc(C(F)(F)F)nc2)C1 [Compound 2, (R)-(2-cyclopropyl-4-((1-(6-(trifluoromethyl)pyridin-3-yl)pyrrolidin-3-yl)methoxy)pyrimidin-5-yl)methanol]	568
N#Cc1cnc(C2CC2)nc1NC[C@H]1CCN(c2ccc(-n3cccn3)nc2)C1 [Compound 48, (R)-4-(((1-(6-(1H-pyrazol-1-yl)pyridin-3-yl)pyrrolidin-3-yl)methyl)amino)-2-cyclopropylpyimidine-5-carbonitrile]	969
N#Cc1cnc(C2CC2)nc1OCC12CC(C1)N(c1ncc(C(F)(F)F)cn1)C2 [Compound 54, 2-cyclopropyl-4-((2-(5-(trifluoromethyl)pyrimidin-2-yl)-2-azabicyclo[2.1.1]hexan-4-yl)methoxy)pyrimidine-5-carbonitrile]	107
N#Cc1cnc(C2CC2)nc1N(CC1CCCO1)CC1CC2C=CC1C2 (stereo not shown) [Compound 74, 4-((bicyclo[2.2.1]hept-5-en-2-ylmethyl)((tetrahydrofuran-2-yl)methyl)amino)-2-cyclopropylpyrimidine-5-carbonitrile]	278
COc1cccc(N2CC[C@H](COc3nc(C4CC4)ncc3C#N)C2)n1 [Compound 12, (S)-2-cyclopropyl-4-((1-(6-methoxypyridin-2-yl)pyrrolidin-3-yl)methoxy)pyrimidine-5-carbonitrile]	529
N#Cc1cnc(C2CC2)nc1OC[C@H]1CCN(c2ccnc(C3CCC3)c2)C1 [Compound 27, (S)-4-((1-(2-cyclobutylpyridin-4-yl)pyrrolidin-3-yl)methoxy)-2-cyclopropylpyrimidine-5-carbonitrile]	3620
N#Cc1cnc(C2CC2)nc1OC[C@@H]1CCN(c2cc(F)ncc2Cl)C1 [Compound 37, (R)-4-((1-(5-chloro-2-fluoropyridin-4-yl)pyrrolidin-3-yl)methoxy)-2 cyclopropylpyrimidine-5-carbonitrile]	3510
N#Cc1cnc(C2CC2)nc1OC[C@H]1CCN(c2ccc(-n3cccn3)nc2)C1 [Compound 55, (S)-4-((1-(6-(1H-pyrazol-1-yl)pyridin-3-yl)pyrrolidin-3-yl)methoxy)-2-cyclopropylpyrimidine-5-carbonitrile]	78
N#Cc1cnc(C2CC2)nc1OC1CCc2ccc(OC(F)(F)F)cc21 (stereo not shown) [Compound 97, 2-cyclopropyl-4-((6-(trifluoromethoxy)-2,3-dihydro-1H-inden-1-yl)oxy)pyrimidine-5-carbonitrile]	18
Cc1nc2c(s1)C(Oc1nc(C3CC3)ncc1C#N)CCC2 (stereo not shown) [Compound 126, 2-cyclopropyl-4-((2-methyl-4,5,6,7-tetrahydrobenzo[d]thiazol-7-yl)oxy)pyrimidine-5-carbonitrile]	971
